In brackets after ≈: the same amount, converted by molar mass. Entries after “also recorded” stand apart in the source; their conditions may differ. Read-outs that look alike come from different tables or passages of the source. Peptide text beside a SMILES is read from it. * marks the point of attachment. Cbz = O=C(OCc1ccccc1)*
Key:
pirin [1] = molecular target: T1, pirin (Homo sapiens, UniProt O00625); assay: Pirin SPR (surface plasmon resonance) binding; settings: for Measured Rmax/Theoretical Rmax: SPR
T1 sequence (O00625 1-290): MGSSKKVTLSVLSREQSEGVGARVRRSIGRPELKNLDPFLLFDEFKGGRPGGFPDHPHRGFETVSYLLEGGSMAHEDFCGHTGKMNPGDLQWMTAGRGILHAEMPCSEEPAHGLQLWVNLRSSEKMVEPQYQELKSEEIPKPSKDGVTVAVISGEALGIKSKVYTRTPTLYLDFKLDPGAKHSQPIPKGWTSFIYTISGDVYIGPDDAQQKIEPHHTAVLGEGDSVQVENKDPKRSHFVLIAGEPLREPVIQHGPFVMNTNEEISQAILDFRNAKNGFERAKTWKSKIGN

pirin [2] = molecular target: T1, pirin; assay: Intracellular competition: rescue of PDP 16 pirin depletion by pirin ligands in SK-OV-3 cells; type: cell-based; set-up: endogenous in cells; host or cells: SK-OV-3
Description: (§1) in vivo in athymic mice to increase its tumorigenicity and reliability as a xenograft, and used within 10 passages of banked stocks.
(§2) Prior to use, the cells were analyzed by short tandem repeat (STR) profiling. Polymorphic STR loci were amplified using a polymerase chain reaction (PCR) primer set. The PCR product (each locus being labelled with a different fluorophore) was analyzed simultaneously with size standards using automated fluorescent detection. The number of repeats at 10 different loci (as recommended by the American Type Culture Collection, ATCC) was used to define the STR profile and this was cross-referenced with online databases to confirm authenticity. […]
(§3) the ATCC reference line (LGC Promochem, UK). […]
(§4) nested PCR protocol (Venor GeM kit, Minerva Biolabs, Germany). Cells were grown in DMEM/10 % FCS, 2 mM glutamine and nonessential amino acids in 5 % CO2.
(§5) SK-OV-3 cells were treated as for each experimental condition. Cells were harvested and lysed by scraping in urea lysis buffer (20 mM HEPES pH 8.0, 9 M urea, 1 mM sodium orthovanadate, 2.5 mM sodium pyrophosphate, 1 mM β-glycerophosphate). […]
(§6) of samples was determined using a bicinchoninic acid (BCA) protein assay kit (Thermo Fisher Scientific). Western blotting was carried out as previously described.10 Pirin and GAPDH antibodies were obtained from Abcam (ab157212) and Merck […]
(§7) Samples were treated, harvested and lysed as described above. A total of 5 μL of 0.2 mg/mL protein was loaded into plates and capillary western analysis was carried out according to the manufacturer’s instructions (ProteinSimple WES). The data was analyzed with the Compass software (ProteinSimple).
(§8) Sigma-Aldrich and Cell Signaling Technology, respectively.
(§9) 10 Sharp SY, Boxall K, Rowlands M, Prodromou C, Roe SM, Maloney A, Powers M, Clarke PA, Box G, Sanderson S, Patterson L, Matthews TP, Cheung KM, Ball K, Hayes A, Raynaud F, Marais R, Pearl L, Eccles S, Aherne W, McDonald E, Workman P. In vitro biological characterization of a novel, synthetic diaryl pyrazole resorcinol class of heat shock protein 90 inhibitors.

[3] = PDP aqueous stability protocol; settings: for half-life at 100 µM: phosphate buffer (PBS)
CRBN-DDB1 complex = molecular target: T2, CRBN-DDB1 complex (Homo sapiens, UniProt Q96SW2); assay: CRBN/DDB1 fluorescence polarization competition assay; type: binding; settings: for Ki: calculated from geometric mean CRBN-DDB1 IC50 and FP-probe KD
T2 construct: His6-ZZ-HRV3C (N); made in house; host or cells: Sf9 insect cells (baculovirus co-infection)
Description: CRBN/DDB1 Fluorescence Polarization Assay […]
Unless otherwise stated, the aqueous assay buffer contained 0.02 M HEPES((4-(2-hydroxyethyl)-1-piperazineethanesulfonic acid)) pH 8.0, 0.15 M NaCl, 0.5 mM TCEP ((tris(2-carboxyethyl)phosphine)), 0.05% Tween 20. The assay was conducted using 384 well black plates (ProxiPlate F Plus, Perkin-Elmer, Massachusetts, USA).
Plate Reader. […] Fluorescence […]
polarization was measured in units of millipolarization (mP) and are background corrected. Data were plotted and analyzed using […]
All experiments were performed in triplicate unless otherwise stated. Values are quoted as the geometric […]
Each graph is a representative example of a single biological repeat unless otherwise stated.
CRBN/DDB1 Protein Expression & Purification
Protein expression and purification methods adapted from Lopez-Girona et al.5 Full length human CRBN (accession number NM016302) was amplified by PCR & inserted downstream of the polyhedrin promoter of a pFBDM expression vector which had been modified to introduce a N-terminal His6-ZZ-HRV3C tag. Full length human DDB1 (accession number NM001923) was amplified by PCR with primers which introduced a C-terminal StrepTag and inserted downstream of the p10 promoter of a separate pFBDM expression vector. Baculoviruses were generated according to Bac-to-Bac protocols (Invitrogen) and used to co-infect Sf9 cells grown @ 27 °C in shaker flasks using Insect-XPRESS media (Lonza). Cells were harvested 48 hours post infection and frozen. For purification, pellets were thawed & resuspended in 5 volumes of Histrap buffer A (see below) and lysed […]
Superdex 200 (HiLoad 26/600), ResourceQ (6 mL) and finally a second Superdex 200 (HiLoad 26/600) column. All columns were from GE Healthcare and all purification steps were performed @ 4 °C. HisTrap buffer A: 50mM Tris (2-Amino-2-(hydroxymethyl)propane-1,3-diol), 500mM NaCl, 0.5mM TCEP ((tris(2-carboxyethyl)phosphine), 5% glycerol, pH 8.0. HisTrap Buffer B: + 250 mM imidazole. Superdex 200 buffer: 50mM Tris, 200mM NaCl, 0.5mM TCEP, 5% glycerol, pH 8.0. Resource Q buffer A: 50mM Tris, 0.5mM TCEP, 5% Glycerol, pH8.0. Resource Q buffer B + 1M NaCl.
California, USA) to prepare CRBN/DDB1 concentrations from 0.1 to 500 nM in 10 µL final assay volume containing 5 nM FP- […]
point prior to analysis. The KD was calculated using non-linear regression and a one-site specific binding model.
Analysis of competition assay FP-probe bound fraction […]
fb=probe bound fraction, KD=probe dissociation constant, L0=probe concentration, R0=protein concentration, Ki=ligand […]
CRBN/DDB1 Competition Assay
Compounds as solutions in DMSO were dispensed using an ECHO 550 Liquid Handler (Labcyte Inc).
Tracer controls (5 nM FP-probe S18 assay buffer only) and bound tracer controls (5 nM and 80 nM CRBN/DDB1) were included on each assay plate . Plates were incubated overnight at 4 °C before warming to room temperature and fluorescence polarization measured using an EnVision plate reader (Perkin -Elmer, Massachusetts, USA). IC 50 values […]
Table S2. CRBN/DDB1 Control Compounds

[4] = Kinetic solubility determination by RP-HPLC; settings: PBS, pH 7.4, aqueous buffer, kinetic from dmso stock
[5] = molecular target: T3, pirin protein in SK-OV-3 human ovarian cancer cells (Homo sapiens, UniProt O00625); assay: Pirin depletion in SK-OV-3 cells (immunoblot / capillary electrophoresis immunoassay); type: cell-based
T3 construct: endogenous in cells; host or cells: SK-OV-3
T3 sequence (O00625 1-290): T1 sequence (O00625 1-290)
Description: as §1, §2, §3, §4, §5, §6, §7, §8, §9

[6] = LogD7.4 determination by RP-HPLC; settings: pH 7.4
proteasome = assay: Rescue of PDP 16 pirin depletion by proteasome inhibitor in SK-OV-3 cells; type: cell-based, human; settings: 500 nM, 4 h pretreatment, then PDP 16 24 h
Description: as §1, §2, §3, §4, §5
of samples was determined using a bicinchoninic acid (BCA) protein assay kit (Thermo Fisher Scientific). […]
Samples were treated, harvested and lysed as described above. […] The data was analyzed with the Compass software (ProteinSimple). […]

[7] = Pirin SPR KD, representative single repeat, best-fit value, one site specific binding
[8] = Pirin SPR pKD, mean of 3 values (unrounded), column statistics
[9] = Pirin SPR pKD±SEM, n = 3 independent biological repeats
[10] = 4 h pretreatment, then PDP 16 for 2 h, SK-OV-3, Figure 4
[11] = Pirin SPR KD, equilibrium analysis, one site specific binding model, geometric mean n = 3
[12] = CRBN/DDB1 FP IC50, single repeat N=2, best-fit value, variable slope four parameters
[13] = best-fit value, variable slope four parameters, read-out: CRBN/DDB1 FP IC50, single repeat N=1
[14] = best-fit value, variable slope four parameters, read-out: CRBN/DDB1 FP IC50, single repeat N=3
[15] = displacement of thalidomide derived fluorescent probe, geometric mean n = 3, read-out: CRBN/DDB1 FP IC50

Kd (pirin [1]; [9])	Structure (SMILES)	Kd (pirin [1]; [7])	Kd (pirin [1]; [8])	Measured Rmax/Theoretical Rmax (pirin [1])	Kd (pirin [1]; [11])	IC50 (CRBN-DDB1 complex; [12])	IC50 (CRBN-DDB1 complex; [13])	IC50 (CRBN-DDB1 complex; [14])	Ki (CRBN-DDB1 complex)	IC50 (CRBN-DDB1 complex; [15])	solubility kinetic at 120 min [4]	chromatographic logD [6]	other results
20.9 nM	CCN1CCN(Cc2ccc3cc(C(=O)Nc4cc(NC(=O)c5ccc6c(c5)OCCO6)ccc4Cl)ccc3n2)CC1 [chlorobisamide 22, N-(2-Chloro-5-(2,3-dihydrobenzo[b][1,4]dioxine-6-carboxamido)phenyl)-2-((4-ethylpiperazin-1-yl)methyl)quinoline-6-carboxamide]	19.9 nM	20.8 nM	0.29	–	–	–	–	–	–	–	–	Concentration giving complete rescue of pirin expression (pirin [2]; [10]): 1 µM; Rescue of pirin expression following treatment with PDP 16 (pirin [2]; [10]): concentration-dependent rescue of pirin expression; Competition of PDP 16 at 6 h exposure (pirin [2]; concentration > 1 μM, data not shown): unsuccessful
–	Cc1ccc(NC(=O)c2ccc3c(c2)OCCO3)cc1NC(=O)c1ccc2nc(OCCN3CCCC3)ccc2c1 [chemical probe 1]	–	–	–	–	–	–	–	–	–	–	–	Stability in pH 7.4 phosphate buffer ([3]; 37 °C, pH 7.4 phosphate buffer): no instability
–	CC(C)C[C@@H](C=O)NC(=O)[C@H](CC(C)C)NC(=O)[C@H](CC(C)C)NC(=O)OCc1ccccc1 [MG132] (Cbz-Leu-Leu-Leu-aldehyde)	–	–	–	–	–	–	–	–	–	–	–	Rescue of pirin degradation by MG132 preincubation (proteasome): rescue
> 1260 nM	O=C1CCC(N2C(=O)c3cccc(OCCOCCOCCN4CCN(Cc5ccc6cc(C(=O)Nc7cc(NC(=O)c8cccc9c8OCCO9)ccc7Cl)ccc6n5)CC4)c3C2=O)C(=O)N1 (centres unmarked) [PDP 21, N-(2-Chloro-5-(2,3-dihydrobenzo[b][1,4]dioxine-5-carboxamido)phenyl)-2-((4-(2-(2-(2-((2-(2,6-dioxopiperidin-3-yl)-1,3-dioxoisoindolin-4-yl)oxy)ethoxy)ethoxy)ethyl)piperazin-1-yl)methyl)quinoline-6-carboxamide]	–	–	–	> 1300 nM	277 nM	590 nM	444 nM	98 nM	420 nM	2 µM (≈ 1.89 µg/mL)	2.9	Pirin depletion by negative control ([5]; SK-OV-3 cells, 24 h treatment, Western blot, Figure S19): does not deplete pirin protein; also recorded: no pirin depletion; half-life at 100 µM ([3]; pH 7.4, Half-life (aqueous stability), 37 °C, pH 7.4 phosphate buffer): 2.8 h

Structure (SMILES)	Kd (pirin [1]; [9])	Kd (pirin [1]; [7])	Kd (pirin [1]; [8])	Measured Rmax/Theoretical Rmax (pirin [1])	Kd (pirin [1]; [11])	IC50 (CRBN-DDB1 complex; [12])	IC50 (CRBN-DDB1 complex; [13])	IC50 (CRBN-DDB1 complex; [14])	Ki (CRBN-DDB1 complex)	IC50 (CRBN-DDB1 complex; [15])	solubility kinetic at 120 min [4]	chromatographic logD [6]	other results
Cc1ccc(NC(=O)c2ccc3c(c2)OCCO3)cc1NC(=O)c1ccc2nc(OCCCC(=O)NCCOCCNC(=O)COc3cccc4c3C(=O)N(C3CCC(=O)NC3=O)C4=O)ccc2c1 (centres unmarked) [PDP 3, N-(5-(2,3-Dihydrobenzo[b][1,4]dioxine-6-carboxamido)-2-methylphenyl)-2-(4-((2-(2-(2-((2-(2,6-dioxopiperidin-3-yl)-1,3-dioxoisoindolin-4-yl)oxy)acetamido)ethoxy)ethyl)amino)-4-oxobutoxy)quinoline-6-carboxamide]	107 nM	111 nM	108 nM	0.44	110 nM	496 nM	1510 nM	811 nM	220 nM	850 nM	1 µM (≈ 0.942 µg/mL)	2.2	IC50 (CRBN-DDB1 complex; column statistics, read-out: CRBN/DDB1 FP pIC50, mean of 3 values (unrounded) (converted)): 847 nM; Effects on SK-OV-3 cells ([5]; >1 μM, >48 h, data not shown): no measurable effects on the cancer cells; half-life at 100 µM ([3]; pH 7.4): 7.2 h
